Assays:
[1] = tested on: Gastric Acid Secretion Stimulated by Pentagastrin; assay: Inhibition of pentagastrin-stimulated gastric acid secretion in anesthetized rats with perfused stomach, intravenous administration; assay type: in vivo, SD species rats; details: SD rats, urethane anesthesia, pentagastrin 15 µg/kg/hour i.v., test drug intravenous, dose 0.1 µmol/kg
Excerpt: (i) Method of Measurement: A cannula was inserted into a trachea of rats anesthetized with urethane (1.25 g/kg intraperitoneal administration) and abdomen was incised to expose stomach and duodenum. After ligating the cardiac portion, a polyethylene cannula was set in the forestomach portion. Further, a small incision was given to the duodenum, and a polyethylene cannula was inserted from the incised portion to a direction of the stomach inside. In order to fix the cannula, the pylorus portion was ligated. A physiological saline (adjusted to pH 7.0) was perfused from forestomach portion to the pylorus portion at a rate of 3 ml/minute. The gastric acid secretion was measured by continuously titrating the perfusate by means of a pH-stat (AUT-201, produced by Toa Electronics Ltd.). The continuous titration was performed by titrating with a 25 mM sodium hydroxide solution using a titration end point of pH 7.0. The results were determined as a gastric acid analysis at 10 minutes intervals (µEq/10 minutes). Then, pentagastrin was intravenously administered (15 µg/kg/hour). After injection of pentagastrin, the acid secretion was increased, and 60 minutes after the injection, the acid secretion reached to its maximum value and stabilized. Thereafter, a test drug was intravenously administered, and the gastric acid secretion was measured. From the gastric acid secretion amount after the test drug injection, a gastric acid secretion inhibitory ratio was calculated by taking the maximum value after the pentagastrin injection as 100%. In this test, two species of rats, i.e., Wistar species rats and SD species rats, were used as test animals, but the embodiments obtained by using the SD species rats are described below. The compounds of the present invention show from 9 to 89% gastric acid secretion inhibitory effects by the administration at a dose of 0.1 µmol/kg. The embodiments are shown below.

CCK-B receptor = target: T1, CCK-B receptor (Rattus norvegicus, UniProt P30553); assay: Binding activity to CCK-B receptor: displacement of [125I]BH.CCK-8 from rat whole brain membrane sample; design: species or system SD rats; details: rat brain membranes, [125I]BH.CCK-8, 25°C, 120 minutes; read-out: CCK-B Binding IC₅₀
T1 construct: freezed at -80°C for storage as a membrane sample; from tissue; host or cells: SD rat whole brain membrane preparation
T1 sequence (P30553 1-452): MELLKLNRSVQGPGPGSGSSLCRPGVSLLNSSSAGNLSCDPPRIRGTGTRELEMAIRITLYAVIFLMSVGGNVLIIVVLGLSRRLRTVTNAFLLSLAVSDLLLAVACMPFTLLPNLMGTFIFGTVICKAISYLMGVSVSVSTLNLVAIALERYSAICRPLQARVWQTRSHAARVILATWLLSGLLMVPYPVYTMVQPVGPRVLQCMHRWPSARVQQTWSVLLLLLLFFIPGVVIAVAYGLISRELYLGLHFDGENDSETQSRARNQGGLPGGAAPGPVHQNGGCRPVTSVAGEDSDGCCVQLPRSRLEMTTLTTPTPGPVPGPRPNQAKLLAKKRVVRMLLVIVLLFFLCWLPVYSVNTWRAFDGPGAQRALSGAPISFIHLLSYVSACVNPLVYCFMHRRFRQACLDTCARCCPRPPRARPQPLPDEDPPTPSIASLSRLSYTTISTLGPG
Experimental: About 100 conscious SD rats were sacrificed by decapitation, and immediately thereafter the whole brain was extracted. The whole brain was homogenized using a Teflon-glass homogenizer in a 0.32M sucrose aqueous solution in a volume of 10 times the whole brain. The resulting homogenate was centrifuged in a cooled centrifugator at 900 × g for 10 minutes, and the supernatant was further centrifuged at 11,500 × g for 15 minutes. The resulting sediment was suspended in a 0.08% Triton X-100 and a 50 mM Tris-HCl buffering solution (pH 7.4). After allowing the suspension to stand for 30 minutes, the suspension was again centrifuged at 11,500 × g for 15 minutes, and the sediment was washed twice with each of 5 mM and 50 mM Tris-HCl buffers by centrifuging operations. The resulting sediment was suspended in a 50 mM Tris-HCl buffer, and freezed at -80°C for storage as a membrane sample.
After thawing the membrane sample at room temperature, it was diluted with a 10 mM HEPES buffer (130 mM NaCl, 5 mM MgCl₂·1mM EGTA, 0.25 mg/ml bacitracin, pH 6.5) and, after incubating at 25°C for 120 minutes in the presence of [¹²⁵I]BH.CCK-8, B/F separation was performed by suction filtration. The non-specific binding was determined in the presence of 1 µM of CCK-8. The amount of the labelled ligand bonded to the receptor was measured by a γ-counter. A Ki (CCK-B) value was determined from a displacement curve of the test compound by taking the maximum binding amount of the labelled ligand to the receptor as 100%.

[2] = tested on: Gastric Acid Secretion Stimulated by Pentagastrin; assay: Inhibition of pentagastrin-stimulated gastric acid secretion in Heidenhain pouch dogs, oral administration; assay type: in vivo, beagle dogs; details: pentagastrin 8 µg/kg/hr infusion, test drug oral
Excerpt: (ii) Method of Measurement: Male beagle dogs (7 to 12 kg) fasted overnight was used and subjected to peritoneotomy under GOF anesthesia. After amputating the corpus ventriculi portion parallel to the curvatura ventriculi major, a metal pouch was retained in the suture-closed epigastric region to prepare Heidenhain pouch dogs. The dogs under healthy conditions after two months from the operation were presented to the experiments. Each of the pouch dogs was used at one week intervals.
Pentagastrin was continuously infused (8 µg/kg/hr) into 3 to 5 Heidenhain pouch dogs fasted for 18 hours, and the gastric juice naturally dropped from the pouch was collected at a 15 minute interval. The acid concentration in the gastric juice was calculated from the amount of a 0.05N NaOH required for titrating up to pH of 7.0 using an automatic titration apparatus (Comtite-7, produced by Hiranuma Sangyo), and the product with the amount of the gastric juice was referred to as an acid secretion amount.
Three hours after commencement of the continuous infusion of pentagastrin, a test drug was orally administered, and an inhibitory ratio to the gastric acid secretion at 15 minute intervals was determined to evaluate the effects of the drug.

Row | SMILES | Gastric Acid Secretion Inhibitory Ratio/Dose [1] | IC50 (CCK-B receptor) [nM] | Gastric Acid Secretion Inhibitory Ratio/Dose ([2]; dose 10 µmol/kg) | Gastric Acid Secretion Inhibitory Ratio/Dose ([2]; dose 1 µmol/kg)
1 | Cc1ccccc1C(=O)CN1C(=O)[C@H](NC(=O)Nc2cccc(N(C)C)c2)N=C(c2ccccc2)c2ccccc21 [Example 3, (R)-1-[2,3-dihydro-1-(2'-methylphenacyl)-2-oxo-5-phenyl-1H-1,4-benzodiazepin-3-yl]-3-(3-dimethylaminophenyl)urea] | 63% (0.1 µmol/kg) | 0.17 | 57% (10 µmol/kg) | –
2 | Cc1ccc(C(=O)CN2C(=O)C(NC(=O)Nc3cccc(N(C)C)c3)N=C(c3ccccc3)c3ccccc32)cc1 (single isomer, unassigned; (+)) [Example 21, (+)-1-[2,3-Dihydro-1-(4'-methylphenacyl)-2-oxo-5-phenyl-1H-1,4-benzodiazepin-3-yl]-3-(3-dimethylaminophenyl)urea] | 74% (0.1 µmol/kg) | 0.16 | 90% (10 µmol/kg) | –
3 | Cc1ccc(C(=O)CN2C(=O)C(NC(=O)Nc3cccc(N(C)C)c3)N=C(c3ccccn3)c3ccccc32)cc1 (stereo not drawn) [Example 35, 1-[2,3-dihydro-1-(4'-methylphenacyl)-2-oxo-5-(2-pyridyl)-1H-1,4-benzodiazepin-3-yl]-3-(3-dimethylaminophenyl)urea] | 76% (0.1 µmol/kg) | 2.14 | – | 83% (1 µmol/kg)

Reference: patent publication EP0647632A1, “NOVEL BENZ[…]” (YAMANOUCHI PHARMACEUTICAL CO. LTD., priority 1992, dated 1994)
